Experimental data: patent US11058659B2, “Methods and compositions for the treatment of ophalmic diseases and disorders” (UNIVERSITY OF SOUTHERN CALIFORNIA, priority 2013, dated 2021)
Entries after “also recorded” stand apart in the source; their conditions may differ.

Columns and labels:
[1] = system: human mammary endothelial cells (HMEC); test: tube formation assay (HMEC cultured in Geltrex); assay type: cell-based; conditions: 24 hours, concentration escalation, at greater than 100 nM, compared to untreated or no Geltrex
Method: FIG. 1. Inhibition of angiogenesis by compound 18 in a dose-dependent manner—Effect on tube formation. The effect of Compound 18 was evaluated using tube formation assay using a concentration escalation design.
(§1) Compound 18 was prepared using methods known in the art. (For example, see U.S. Pat. Nos. 8,115,023, and 7,683,193). […] (FIG. 3). On Day 7, retinal edema and angiogenesis between the two treatment groups were similar.

[2] = system: VEGF-induced angiogenesis; test: VEGF-induced angiogenesis in a rabbit eye model; assay type: in vivo
Method: FIG. 2. Inhibition of angiogenesis by compound 18 in a dose-dependent manner—Effect on VEGF-induced angiogenesis in a rabbit eye model. (A) Study design. To evaluate the impact of compound 18, 10 μg of VEGF in each eye is administered as an intravitreal injection. In this study, the activity of compound 18 is evaluated in a concentration escalation manner from 0.125 to 0.5 mg given as a single dosage. A formulation of compound 18 where the dosage is admixed in a total of 50 μL, was administered immediately after VEGF administration. (B) Results.
FIG. 3. Comparison of compound 18 with bevacizumab (Avastin)—Effect on VEGF-induced angiogenesis in a rabbit eye model. The potency of compound 18 was compared with bevacizumab. (A) Study design. Using a VEGF-induction eye model, where 10 μg of VEGF is injected as an intravitreal administration. One dose of 0.5 mg of compound 18 was compared with 1.25 mg bevacizumab after VEGF induction. (B) Results. […] On Day 7, retinal edema and angiogenesis between the two treatment groups were similar.
as §1

CNV lesions = test: choroidal neovascularization (CNV) model of age-related macular degeneration (AMD), laser induced lesions supplemented with VEGF; assay type: in vivo; conditions: for CNV lesion number: week 4 of therapy, vs vehicle control; for vessels and edema in the CNV lesions (retinal angiography): by week 4, vs vehicle
Method: FIG. 4. Effect of compound 18 in a choroidal neovascularization (CNV) model of age-related macular degeneration (AMD). (A) Study Design: Simultaneous treatment model. Choroidal neovascularization (CNV) model, was used to determine its effect on new blood vessel formation. In this figure, laser induced lesions were further supplemented with 10 μg VEGF intravitreal administration every two weeks. Laser induced AMD lesions penetrated the Bruch's membrane. CNV lesions were treated with 0.5 mg compound 18 administered weekly, where first dosage was given at the time of CNV lesion formation. (B) Results.
FIG. 5. Effect of compound 18 in a choroidal neovascularization (CNV) model of age-related macular degeneration (AMD) A) Study Design: Sequential treatment model. CNV model was used to determine compound 18's effect on new blood vessel formation. Laser induced lesions were supplemented with 10 μg VEGF intravitreal administration every two weeks. CNV lesions were treated with 0.5 mg compound 18 administered weekly, were given one week after CNV lesion formation. (B) Results.
FIG. 6. Quantification of the Lesion Number and Mean Area. CNV lesions were enumerated at baseline, 2 and 4 weeks after CNV lesion formation. (A) Lesion Number. […] (B) Mean Area.
FIG. 8. Optical Coherence Tomography (OCT) of CNV Lesions Over Time. OCT was used to evaluate CNV lesion healing after compound 18 treatment.
FIG. 9. Confocal Scanning Fluorescent Microscope of CNV Lesions. Confocal scanning fluorescent microscopy is used to visualize the level of neovascular growth. In the vehicle treated lesions (Left), extensive neovascular growth is noted after one month.
FIG. 10. Confocal Scanning Electron Microscopy of CNV lesions treated with vehicle (Left) was compared with compound 18 treatment (Right).
as §1

VEGF receptor 2 = test: RT-PCR of CNV lesions after treatment: VEGF receptor 2; assay type: in vivo
Method: (§2) FIG. 7. RT-PCR Data of CNV after treatment. Reduced expression of pro-angiogenic and pro-inflammatory proteins upon treatment with compound 18.
as §1

cyclooxygenase-2 (COX-2) = test: RT-PCR of CNV lesions after treatment: COX-2; assay type: in vivo
Method: as §2, §1

[3] = Day 7, 10 μg VEGF intravitreal, one dose

CCCCC[C@@H](O)/C=C/c1cccc(/C=C/[C@@H](O)[C@@H](O)CCCC(=O)OC)c1 [Compound 18]
inhibition of tube formation (angiogenesis) [1]: able to inhibit angiogenesis in a dose-response manner; also recorded: notable inhibition of tube formation | activity profile vs Avastin ([2]; 0.5 mg compound 18 vs 1.25 mg Avastin, Day 3 and Day 7 findings): comparable or improved activity profile vs Avastin | retinal edema and angiogenesis, 0.5 mg compound 18 compared to 1.25 mg bevacizumab ([2]; Day 3, 10 μg VEGF intravitreal, one dose): significantly lower retinal edema and angiogenesis | retinal edema and angiogenesis between the two treatment groups (0.5 mg compound 18 vs 1.25 mg bevacizumab) [2, 3]: similar | level of retinal edema and angiogenesis vs vehicle ([2]; Day 7, 10 μg VEGF intravitreal, single dose, doses >0.25 mg (0.125 to 0.5 mg tested)): significantly reduced | neovascular growth in CNV lesions (confocal scanning fluorescent microscopy) (CNV lesions; after one month, vs vehicle treated lesions): significant reduction in neovascular growth | CNV lesion healing by Optical Coherence Tomography (OCT) (CNV lesions; same lesion evaluated at 2 weeks and 4 weeks): able to promote healing of a lesion | mean CNV area (CNV lesions; sequential (SQ) treatment): reduction in the mean CNV area | CNV lesion number (CNV lesions; sequential (SQ) treatment): significantly reduced CNV lesion | vessels and edema in the CNV lesions (retinal angiography) (CNV lesions; sequential treatment model, 0.5 mg weekly starting one week after lesion formation): statistically significant reduction in the vessels and edema | mean CNV area (CNV lesions; simultaneous (SM) treatment): reduction in the mean CNV area | CNV lesion number (CNV lesions; simultaneous (SM) treatment): significantly reduced CNV lesion | vessels and edema in the CNV lesions (retinal angiography) (CNV lesions; simultaneous treatment model, 0.5 mg weekly from time of lesion formation): statistically significant reduction in the vessels and edema | morphology of CNV lesions (Confocal Scanning Electron Microscopy) (CNV lesions; vs vehicle (neovascular growth penetrating the Bruch's membrane)): thin-walled fenestrated vascular channels with flat configuration | expression of VEGF receptor 2 (RT-PCR) (VEGF receptor 2; sequential (SQ) treatment): significantly reduced the expression | expression of VEGF receptor 2 (RT-PCR) (VEGF receptor 2; simultaneous (SM) treatment): significantly reduced the expression | expression of cyclooxygenase-2 (COX-2) (RT-PCR) (cyclooxygenase-2 (COX-2); sequential (SQ) treatment): significantly reduced the expression | expression of cyclooxygenase-2 (COX-2) (RT-PCR) (cyclooxygenase-2 (COX-2); simultaneous (SM) treatment): significantly reduced the expression

bevacizumab: FDA-approved anti-VEGF antibody injected intravitreally [reference compound]
retinal edema and angiogenesis between the two treatment groups (0.5 mg compound 18 vs 1.25 mg bevacizumab) [2, 3]: similar
